Data taken from patent publication US20130039956A1, “USE OF NITROCARBOXYLIC ACIDS FOR THE TREATMENT, DIAGNOSIS AND PROPHYLAXIS OF AGGRESSIVE HEALING PATTERNS” (priority 2010, published 2013).

Columns and labels:
[1] = system: human corneal fibroblasts; experiment: Model for fibrosis induction (3D corneal stroma, TGF-β1); format: cell-based; conditions: TGF-β1 over 7 days; compared with native FA; note: key: 0: not superior to native FA (control); +: Superior to native FA; ++: superior to both; +++: outstanding effect
Procedure: Cornea injury may ultimately lead to a scar by way of corneal fibrosis, which is characterized by the presence of myofibroblasts and improper deposition of extracellular matrix components (ECM). An established in vitro model to study the healing response to trauma of corneal stroma was used. The in vitro 3-dimensional (3D) model of a corneal stroma was produced by human corneal fibroblasts stimulated with stable vitamin C which mimics corneal development. TGF-β1 was added to the medium over 7 days. […] There were no morphological changes of the myofibroblasts when treated with nitro fatty acids.

pericardial strips = experiment: Cold induced injury in a whole tissue ex-vivo model (pericardium); format: cell-based, Wistar rats; conditions: 200 μmol, 10 min, two cooling cycles; compared with native FA; note: key: 0: not superior to native FA (control); +: Superior to native FA; ++: superior to both; +++: outstanding effect
Source text: To determine whether nitrated fatty acids can be used to preserve cells and tissues from cold or cryoinjury, an in vitro model utilizing murine epicardium was established. The experimental set-up should reduce the possibility of ischemia or reperfusion injury to a minimum, but at the same time allow differentiation of the contribution of ischemia/reperfusion injury-triggered cell death, which is known to occur almost exclusively via apoptosis, whereas cell death induced by cold injury almost exclusively results in necrosis.
The pericardial sac was carefully resected in 24 anesthetized Wistar rats (180-270 g) of either sex. Care was taken to grasp the pericardium with a forceps only at the cutting edges and reduce traumatization of the central portions of the pericardium to a minimum. After resection, the cutting edge and the former apex area of the pericardium were dissected, as to obtain flat tissue strips which were placed immediately in the culture medium (DMEM) containing 10% FCS and antibiotics (penicillin, streptomycin). Tissue samples were cultured in an oxygen atmosphere at 18° C. for 2 days. […] Then the pericardial strips were cut into 4 pieces of equal size. One piece was further cultivated at 37° C. without undergoing the cooling cycles, thus, serving as the control. In each of three investigations, one piece was bathed in a solution (0.9% saline and 1% SDS) containing 200 μmol nitro-fatty acid or contained 200 μmol of the corresponding native fatty acid, for 10 min at a temperature of 18° C. One piece of pericardium was bathed in a solution without fatty acids under otherwise identical conditions. All samples were cooled by continuously decreasing from ambient temperature at a rate of 3° C./min to a minimum temperature of […]. After 1 hour, the samples were rewarmed at a rate of 3° C./min by continuously increasing the temperature until a temperature of 18° C., was achieved. Thereafter an identical cooling and rewarming cycle was performed. After the second cooling cycle, the tissue pieces were further cultured in the culture medium for 1 day allowing continuous adaptation to an ambient temperature of 37° C. For analytical preparations the pericardial pieces were out and further processed. A direct TUNEL assay (Roche) was use for quantification of apoptosis, an annexin V/propidium iodide exclusion assay (Roche) was used to quantify the number of necrotic cells, and viability was determined by the WST-8 assay. Furthermore, the LDH release was quantified in the supernatants.
To rule out that cell death has been induced by ischemia or reperfusion (reoxygenation), in one series of experiments, a control sample was incubated with an all-caspase inhibitor (Q-VD-OPH, BioVision, USA) reconstituted in DMSO before the sample was exposed to cold.

[2] = system: Human epithelial lung cells (A549); experiment: Membrane protein mediated cytotoxicity (NaF) in epithelial cells, MTT assay; conditions: 10 and 50 μmol, 2 hours preincubation, NaF 1-8 mmol; compared with native FA
Procedure: Human epithelial lung cells (A549) were cultured and transferred to an isotonic medium. Cell suspensions were incubated with saline solution, native fatty acid (10 and 50 μmol), or nitro fatty acid (10 and 50 μmol) for 2 hours. Sodium fluoride (NaF) was added to achieve concentrations between 1 and 8 mmol. Cells were separated and washed after 24 hours of exposure. The MTT assay was used to evaluate apoptosis rates.

macrophages = experiment: Foreign body model (fusion of macrophages, IL-4); format: cell-based; conditions: polymeric coating on stainless steel; compared with native FA; note: key: 0: not superior to native FA (control); +: Superior to native FA; ++: superior to both; +++: outstanding effect
Source text: Organisms react to the contact with a not completely biocompatible surface with a stereotypic chain of reactions. This is preceded by aggregation of plasmaproteins which initiate adhesion of monocytes. As a response to incompatibility, structural changes and fusion of those monocytes to form giant cells occur. The formation of giant cells is a key component in the development of a foreign body reaction. […] Predictability of foreign body reaction has been validated in an in-vitro model by monitoring fusion of macrophages in response to IL-4 exposition. Using this model a polymeric coating of a stainless steel support material containing variable amounts of nitro fatty acids or native fatty acids or just coated with the sole polymer were exposed to plasma with various concentrations of vitronectin.

Compound	Relative efficacy in model for fibrosis induction [1]	Relative effect on cold induced injury (pericardial strips)	Relative effect on NaF-induced cytotoxicity [2]	Relative efficacy in foreign body model (macrophages)
9,10-nitro-cis-oleic acid [compound 10]	++	+	–	–
9,10-nitro-trans-oleic acid [compound 15]	+	–	–	–
CCCCCCCC/C=C(/CCCCCCCC(=O)O)[N+](=O)[O-] [compound 1, 9-nitro cis-oleic acid]	++	++	++	–
CCCCC/C=C\C/C(=C\CCCCCCCC(=O)O)[N+](=O)[O-] [compound 2, 10-nitro-cis-linoleic acid]	++	++	++	–
CCCCCCCC/C(=C/CCCCCCCC(=O)O)[N+](=O)[O-] [compound 3, 10-nitro-cis-oleic acid]	+	+	+	–
CC/C=C\C/C=C\C/C=C(/CCCCCCCC(=O)O)[N+](=O)[O-] [compound 6, 9-nitro-all-cis-9-12,15-octadecatrienoic acid]	++	++	–	–
CCCCCCCC/C=C(/CCCCCCCCCCCCCC(=O)O)[N+](=O)[O-] [compound 8, 15-nitro-cis-15-tetracosenoic acid]	+	–	–	–
CCCCC=C(C=CC=CCCCCCCCC(=O)O)[N+](=O)[O-] [compound 11, 13-nitro-octadeca-9,11,13-trienoic acid]	+	–	–	–
CCCCCC=CCC=C(CC=CCC=CCCCC(=O)O)[N+](=O)[O-] [compound 14, 11-nitro-5,8,11,14-eicosatrienoic acid]	+	–	–	–
CCCCCCCCCCC/C=C(/CCCCC(=O)O)[N+](=O)[O-] [compound 21, 6-nitro-cis-6-octadecenoic acid]	–	+	–	+
CCCCCC=CCC=C(CC=CC/C=C\CCCC(=O)O)[N+](=O)[O-] [compound 22, 11-nitro-cis-5,8,11,14-eicosatetraenoic acid]	++	++	++	++
